What was measured:
Test in all cases: Test F preemergence/postemergence greenhouse plant response rating 0 to 100
wild oat = assay type: in vivo, Avena fatua; conditions: POSTEMERGENCE, 0 to 100 scale; for Wild oat (1) plant response rating: stage (1) two to three leaves; for Wild oat (2) plant response rating: stage (2) approximately four leaves or initial tillering
Outline: (§1)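 Pre: sandy loam, spray ~1 day after seeding. Post: 1–4 leaf plants, 60:40 sandy loam/potting mix; blackgrass treated at two growth stages. Formulated in non-phytotoxic solvent. Visual rating vs untreated controls at ~21–28 d.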

ryegrass = assay type: in vivo, Lolium multiflorum; conditions: POSTEMERGENCE, 0 to 100 scale
Outline: as §1

wild buckwheat = assay type: in vivo, Polygonum convolvulus; conditions: POSTEMERGENCE, 0 to 100 scale
Outline: as §1

downy brome = assay type: in vivo, Bromus tectorum; conditions: POSTEMERGENCE, 0 to 100 scale
Outline: as §1

rape = assay type: in vivo, Brassica napus; conditions: POSTEMERGENCE, 0 to 100 scale
Outline: as §1

green foxtail = assay type: in vivo, Setaria viridis; conditions: POSTEMERGENCE, 0 to 100 scale
Outline: as §1

winter wheat = assay type: in vivo, Triticum aestivum cv. ‘Talent’; conditions: POSTEMERGENCE, 0 to 100 scale
Outline: as §1

winter barley = assay type: in vivo, Hordeum vulgare cv. ‘Igri’; conditions: POSTEMERGENCE, 0 to 100 scale
Outline: as §1

galium = assay type: in vivo, Galium aparine; conditions: POSTEMERGENCE, 0 to 100 scale; for Galium (1) plant response rating: stage (1) two to three leaves; for Galium (2) plant response rating: stage (2) approximately four leaves or initial tillering
Outline: as §1

spring wheat = assay type: in vivo, Triticum aestivum cv. ‘ERA’; conditions: POSTEMERGENCE, 0 to 100 scale
Outline: as §1

lambsquarters = assay type: in vivo, Chenopodium album; conditions: POSTEMERGENCE, 0 to 100 scale
Outline: as §1

field violet = assay type: in vivo, Viola arvensis; conditions: POSTEMERGENCE, 0 to 100 scale
Outline: as §1

chickweed = assay type: in vivo, Stellaria media; conditions: POSTEMERGENCE, 0 to 100 scale
Outline: as §1

speedwell = assay type: in vivo, Veronica persica; conditions: POSTEMERGENCE, 0 to 100 scale
Outline: as §1

C#CC(C)N1C(=O)COc2cc(F)c(-c3nn4c(c3Cl)CCCC4)cc21 (stereo not shown) [Compound 50]
Wild oat (1) plant response rating (wild oat; Rate 16 g/ha): 0 | Wild oat (2) plant response rating (wild oat; Rate 16 g/ha): 0 | Wild oat (1) plant response rating (wild oat; Rate 32 g/ha): 0 | Wild oat (2) plant response rating (wild oat; Rate 32 g/ha): 0 | Wild oat (1) plant response rating (wild oat; Rate 64 g/ha): 0 | Wild oat (2) plant response rating (wild oat; Rate 64 g/ha): 0 | Wild oat (1) plant response rating (wild oat; Rate 125 g/ha): 0 | Wild oat (2) plant response rating (wild oat; Rate 125 g/ha): 0 | Ryegrass plant response rating (ryegrass; Rate 16 g/ha): 0 | Ryegrass plant response rating (ryegrass; Rate 32 g/ha): 0 | Ryegrass plant response rating (ryegrass; Rate 64 g/ha): 0 | Ryegrass plant response rating (ryegrass; Rate 125 g/ha): 10 | Wild buckwheat plant response rating (wild buckwheat; Rate 16 g/ha): 40 | Wild buckwheat plant response rating (wild buckwheat; Rate 32 g/ha): 100 | Wild buckwheat plant response rating (wild buckwheat; Rate 64 g/ha): 100 | Wild buckwheat plant response rating (wild buckwheat; Rate 125 g/ha): 100 | Downy brome plant response rating (downy brome; Rate 16 g/ha): 0 | Downy brome plant response rating (downy brome; Rate 32 g/ha): 0 | Downy brome plant response rating (downy brome; Rate 64 g/ha): 0 | Downy brome plant response rating (downy brome; Rate 125 g/ha): 0 | Rape plant response rating (rape; Rate 16 g/ha): 100 | Rape plant response rating (rape; Rate 32 g/ha): 100 | Rape plant response rating (rape; Rate 64 g/ha): 100 | Rape plant response rating (rape; Rate 125 g/ha): 100 | Green foxtail plant response rating (green foxtail; Rate 16 g/ha): 0 | Green foxtail plant response rating (green foxtail; Rate 32 g/ha): 0 | Green foxtail plant response rating (green foxtail; Rate 64 g/ha): 50 | Green foxtail plant response rating (green foxtail; Rate 125 g/ha): 50 | Wheat (Winter) plant response rating (winter wheat; Rate 16 g/ha): 0 | Wheat (Winter) plant response rating (winter wheat; Rate 32 g/ha): 0 | Wheat (Winter) plant response rating (winter wheat; Rate 64 g/ha): 0 | Wheat (Winter) plant response rating (winter wheat; Rate 125 g/ha): 0 | Winter Barley plant response rating (winter barley; Rate 16 g/ha): 0 | Winter Barley plant response rating (winter barley; Rate 32 g/ha): 0 | Winter Barley plant response rating (winter barley; Rate 64 g/ha): 0 | Winter Barley plant response rating (winter barley; Rate 125 g/ha): 50 | Galium (1) plant response rating (galium; Rate 16 g/ha): 100 | Galium (2) plant response rating (galium; Rate 16 g/ha): 100 | Galium (1) plant response rating (galium; Rate 32 g/ha): 100 | Galium (2) plant response rating (galium; Rate 32 g/ha): 100 | Galium (1) plant response rating (galium; Rate 64 g/ha): 100 | Galium (2) plant response rating (galium; Rate 64 g/ha): 100 | Galium (1) plant response rating (galium; Rate 125 g/ha): 100 | Galium (2) plant response rating (galium; Rate 125 g/ha): 100 | Wheat (Spring) plant response rating (spring wheat; Rate 16 g/ha): 0 | Wheat (Spring) plant response rating (spring wheat; Rate 32 g/ha): 0 | Wheat (Spring) plant response rating (spring wheat; Rate 64 g/ha): 0 | Wheat (Spring) plant response rating (spring wheat; Rate 125 g/ha): 10 | Lambsquarters plant response rating (lambsquarters; Rate 16 g/ha): 30 | Lambsquarters plant response rating (lambsquarters; Rate 32 g/ha): 50 | Lambsquarters plant response rating (lambsquarters; Rate 64 g/ha): 100 | Lambsquarters plant response rating (lambsquarters; Rate 125 g/ha): 100 | Field violet plant response rating (field violet; Rate 16 g/ha): 100 | Field violet plant response rating (field violet; Rate 32 g/ha): 100 | Field violet plant response rating (field violet; Rate 64 g/ha): 100 | Field violet plant response rating (field violet; Rate 125 g/ha): 100 | Chickweed plant response rating (chickweed; Rate 16 g/ha): 70 | Chickweed plant response rating (chickweed; Rate 32 g/ha): 100 | Chickweed plant response rating (chickweed; Rate 64 g/ha): 100 | Chickweed plant response rating (chickweed; Rate 125 g/ha): 100 | Persn Speedwell plant response rating (speedwell; Rate 16 g/ha): 100 | Persn Speedwell plant response rating (speedwell; Rate 32 g/ha): 100 | Persn Speedwell plant response rating (speedwell; Rate 64 g/ha): 100 | Persn Speedwell plant response rating (speedwell; Rate 125 g/ha): 100

From patent US6358885B1, “Substituted phenylheterocyclic herbicides” (Mississippi State University, priority 1992, dated 2002)
